For data set [1], the system named is Panc-1 and MiaPaCa-2 pancreatic cancer cells. The data set is described as follows: Cell viability assay (Table 3). To be noted: for cytotoxicity: either cell line tested (Panc-1, MiaPaCa-2); for Cell viability (IC50): viability assay, cell line not given, N/I = no inhibition at the highest concentration tested.
For data set [2], the system named is phospho-Ser473-AKT in Panc-1 cells. As to the kind of experiment: Cellular AKT inhibition, Western blot phospho-Ser473-AKT, Panc-1 cells. (In western blotting, separated proteins are transferred to a membrane and probed.)
Data set [3] concerns Panc-1 pancreatic cell line. The data set is described as follows: Apoptosis, morphological assay, Panc-1 cells. The data set is classed as cell-based, human. The conditions noted are these: Panc-1, morphological assay. An excerpt: (§1) AKT inhibition leads to cellular apoptosis.
The test system of data set [4] is MiaPaca-2 pancreatic cell line. As to the kind of experiment: Apoptosis, morphological assay, MiaPaCa-2 cells. To be noted: MiaPaca-2, morphological assay. The data set is classed as cell-based, human.
Excerpt: as §1

Data set [5] relates to phospho-Ser473-AKT in MiaPaCa-2 cells. As to the kind of experiment: Cellular AKT inhibition, Western blot phospho-Ser473-AKT, MiaPaCa-2 cells. To be noted: read-out: pAKT inhibition (IC50).
The test system of data set [6] is phospho-Ser473-AKT in BxPC-3. The data set is described as follows: Cellular AKT inhibition, Western blot phospho-Ser473-AKT, BxPC-3 cells. The data set is classed as cell-based, human. The conditions noted are these: for inhibition at 10 µM: Homo sapiens.
Data set [7] deals with phospho-Ser473-AKT in HT-29 cells. As to the kind of experiment: Cellular AKT inhibition, Western blot phospho-Ser473-AKT, HT-29 cells. The data set is classed as cell-based. The conditions noted are these: human HT-29 colon cancer cells. The procedure:
as §1
(§2) AKT activity was measured by Western blotting using anti-[…] AKT antibody. Downstream targets of AKT were detected also by Western blotting using specific anti-phospho antibodies and anti-actin was used as a loading control.

For data set [8], the system named is phospho-Ser473 AKT in NIH3T3 cells. The data set is described as follows: Cellular AKT inhibition, phospho-Ser473 AKT, NIH3T3 cells. The data set is classed as cell-based. The conditions noted are these: mouse NIH3T3, phospho-Ser473 AKT. Here is the method: as §2
Data set [9] concerns HT-29 cells. As to the kind of experiment: Cell survival / cytotoxicity, MTT assay, HT-29 cells. Type of data set: cell-based, human.
Data set [10] relates to HT-29 cells. The data set is described as follows: Metabolic stability under cell culture conditions (incubation with HT-29 cells). The conditions noted are these: incubating with HT-29 cells at maximum DMEM concentration at 37° C. The data set is classed as in vitro ADME, human. The text has this: Compound 6 was too insoluble to obtain data.
Data set [11] can be described thus: Solubility. Type of data set: physicochemical.
Where [12] appears, read: BXPC-3, read-out: % pAKT Inhibition, At 10 μM.
Where [13] appears, read: BxPC-3, Western blots phospho-Ser473-AKT, 10 μM, NI = not inhibitory, read-out: % pAKT Inhibition, At 10 μM.
Setting [14] is: MTT assay, read-out: Cell survival (IC50).
[15] abbreviates: Western blotting, phospho-Ser473-AKT, MiaPaCa-2 cells, N/I = no inhibition at the highest concentration tested.

By IC50 is commonly meant the concentration needed to halve the response being measured. By inhibition is commonly meant the share of the control response that was lost under treatment. Usually Solubility stands for the concentration that dissolves in the medium under given conditions. Low values mean little dissolved substance, high ones much dissolved substance.

Structures are written as SMILES. In brackets after ≈: the same amount, converted by molar mass. Like-named read-outs stand apart in the source and are kept apart here.

As to `Nc1ccc(S(=O)(=O)Nc2nncs2)cc1` [Compound 100, 4-Amino-N-(1,3,4-thiadiazol-2-yl)benzenesulfonamide], in data set [1], the cytotoxicity entry was “did not exhibit cytotoxicity” and the “Cell viability (IC50)” value is on record as “N/I”.

Regarding `CCCCCCCCCC(=O)Nc1ccc(S(=O)(=O)Nc2nncs2)cc1` [Compound 101, N-(4-(N-1,3,4-Thiadiazol-2-ylsulfamoyl)phenyl)decanamide], the 50% inhibitory concentration (IC50) in [2] (Homo sapiens, PANC-1, read-out: pAKT inhibition (IC50)) worked out at 10 µM.

As to `COCCOCCOCC(=O)Nc1ccc(S(=O)(=O)Nc2nncs2)cc1` [Compound 103], the “Apoptosis at 20 μmol/L” value in [3] is listed as 11.4 ± 0.5/ %; in [4], 18.7 ± 3.1%. Also, the IC50 in data set [2] (read-out: pAKT inhibition (IC50), Panc-1, Western blots phospho-Ser473-AKT) was over 50 µM; in [5] (MiaPaca-2, Western blots phospho-Ser473-AKT) it was over 50 µM.

Turning to `Cc1nnc(NS(=O)(=O)c2ccc(N)cc2)s1` [Compound 105, 4-Amino-N-(5-methyl-1,3,4-thiadiazol-2-yl)benzenesulfonamide], in data set [6] (setting [12]), the inhibition at 10 µM is 11%.

Turning to `CCCCCCCCCC(=O)Nc1ccc(S(=O)(=O)Nc2nnc(C)s2)cc1` [Compound 107, N-(4-(N-(5-Methyl-1,3,4-thiadiazol-2-yl)sulfamoyl)phenyl)decanamide], the inhibition at 10 µM in data set [6] (setting [13]) was 11%.

In the case of `CCCCCCCCCCCCc1ccc(S(=O)(=O)Nc2nnc(C)s2)cc1` [Compound 108, 4-Dodecyl-N-(5-methyl-1,3,4-thiadiazol-2-yl)benzenesulfonamide], the inhibition at 10 µM in data set [6] (setting [13]) worked out at 64%.

Consider `CCc1nnc(NS(=O)(=O)c2ccc(N)cc2)s1` [Compound 109, 4-Amino-N-(5-ethyl-1,3,4-thiadiazol-2-yl)benzenesulfonamide], for which, in data set [6] (setting [13]), the inhibition at 10 µM came out at 16%.

`CCc1nnc(NS(=O)(=O)c2ccc(NC(C)=O)cc2)s1` [Compound 110, N-(4-(N-(5-Ethyl-1,3,4-thiadizol-2-yl)sulfamoyl)phenyl)acetamide]: the “% pAKT Inhibition, At 10 μM” value in data set [6] (BxPC-3, Western blots phospho-Ser473-AKT, 10 μM, NI = not inhibitory) stood at 45%.

For `CCCCCCCCCC(=O)Nc1ccc(S(=O)(=O)Nc2nnc(CC)s2)cc1` [Compound 111, N-(4-(N-(5-Ethyl-1,3,4-thiadiazol-2-yl)sulfamoyl)phenyl)decanamide], the inhibition at 10 µM in [6] (setting [13]) was determined as 22%.

As to `CC(C)(C)c1nnc(NS(=O)(=O)c2ccc(N)cc2)s1` [Compound 113, 4-Amino-N-(5-tert-butyl-1,3,4-thiadiazol-2-yl)benzenesulfonamide], the inhibition at 10 µM in [6] (setting [13]) amounted to 13%.

Regarding `CC(=O)Nc1ccc(S(=O)(=O)Nc2nnc(C(C)(C)C)s2)cc1` [Compound 114, N-(4-(N-(5-tert-Butyl-1,3,4-thiadiazol-2-yl)sulfamoyl)phenyl)acetamide], the inhibition at 10 µM in [6] (setting [13]) amounted to 20%.

Turning to `CCCCCCCCCC(=O)Nc1ccc(S(=O)(=O)Nc2nnc(C(C)(C)C)s2)cc1` [Compound 115, N-(4-(N-(5-tert-Butyl-1,3,4-thiadiazol-2-yl)sulfamoyl)phenyl)decanamide], the inhibition at 10 µM in [6] (setting [13]) was found to be 16%.

For `CCCCCCCCCCCCc1ccc(S(=O)(=O)Nc2nnc(C(C)(C)C)s2)cc1` [Compound 116, N-(5-tert-Butyl-1,3,4-thiadiazol-2-yl)-4-dodecylbenzenesulfonamide], in data set [6] (setting [13]), the inhibition at 10 µM worked out at 36%.

On to `Nc1ccc(S(=O)(=O)Nc2nnc(CC(=O)O)s2)cc1` [Compound 117, 2-(5-(4-Aminophenylsulfonamido)-1,3,4-thiadiazol-2-yl)acetic Acid], for which, in data set [6] (setting [13]), the inhibition at 10 µM was 23%.

For the compound `CC(=O)Nc1ccc(S(=O)(=O)Nc2nnc(CC(=O)O)s2)cc1` [Compound 118, 2-(5-(4-Acetamidophenylsulfonamido)-1,3,4-thiadiazol-2-yl)acetic Acid], the inhibition at 10 µM in data set [6] (setting [13]) is 19%.

As to `CCOC(=O)Cc1nnc(NS(=O)(=O)c2ccc(NC(C)=O)cc2)s1` [Compound 118E, Ethyl 2-(5-(4-Acetamidophenylsulfonamido)-1,3,4-thiadiazol-2-yl)acetate], the inhibition at 10 µM in data set [6] (setting [13]) came to 55%.

As for `CCCCCCCCCC(=O)Nc1ccc(S(=O)(=O)Nc2nnc(CC(=O)O)s2)cc1` [Compound 119, 2-(5-(4-Decanamidophenylsulfonamido)-1,3,4-thiadiazol-2-yl)acetic Acid], in [6] (setting [13]), the inhibition at 10 µM was determined as 42%.

Regarding `CCCCCCCCCC(=O)Nc1ccc(S(=O)(=O)Nc2nnc(C(=O)OCC)s2)cc1` [Compound 123E, Ethyl 5-(4-Decanamidophenylsulfonamido)-1,3,4-thiadiazole-2-carboxylate], in [6] (setting [13]), the inhibition at 10 µM was determined as 10%.

With `Nc1ccc(S(=O)(=O)Nc2nnc(CO)s2)cc1` [Compound 125, 4-Amino-N-(5-(hydroxymethyl)-1,3,4-thiadiazol-2-yl)benzenesulfonamide], in [6] (setting [13]), the inhibition at 10 µM worked out at 10%.

In the case of `CCCCCCCCCC(=O)Nc1ccc(S(=O)(=O)Nc2nnc(CO)s2)cc1` [Compound 127, N-(4-(N-(5-(hydroxymethyl)-1,3,4-thiadiazol-2-yl)sulfamoyl)phenyl)decanamide], the inhibition at 10 µM in data set [6] (setting [13]) worked out at 11%.

Consider `Nc1ccc(S(=O)(=O)Nc2nnc(S(N)(=O)=O)s2)cc1` [Compound 131, 5-(4-Aminophenylsulfonamido)-1,3,4-thiadiazole-2-sulfonamide], for which the inhibition at 10 µM in data set [6] (setting [12]) was found to be 18%.

For the compound `CCCCCCCCCCCCc1ccc(S(=O)(=O)Nc2nnc(CCCCCN(C)c3ccc([N+](=O)[O-])c4nonc34)s2)cc1` [Compound 137, 4-Dodecyl-N-(5-(5-(methyl(7-nitrobenzo[c][1,2,5]oxadiazol-4-yl)amino)pentyl)-1,3,4-thiadiazol-2-yl)benzenesulfonamide], the AKT phosphorylation entry in [6] (BxPC-3 cells, compared with 104) is on record as “inhibited AKT phosphorylation in a fashion similar to 104”.

As for `CCCCCCCCc1ccc(S(=O)(=O)Nc2nncs2)cc1` [Compound 153, 4-Octyl-N-(1,3,4-thiadiazol-2-yl)benzenesulfonamide], the inhibition at 10 µM in data set [6] (setting [13]) was found to be 10%.

For `CCCCCCCCCCCCCCc1ccc(S(=O)(=O)Nc2nncs2)cc1` [Compound 156, 4-Tetradecyl-N-(1,3,4-thiadiazol-2-yl)benzenesulfonamide], the inhibition at 10 µM in data set [6] (setting [13]) was found to be 70%.

In the case of `CCCCCCCCCCCCCCCCc1ccc(S(=O)(=O)Nc2nncs2)cc1` [Compound 157, 4-Hexadecyl-N-(1,3,4-thiadiazol-2-yl)benzenesulfonamide], the inhibition at 10 µM in data set [6] (setting [13]) was found to be 50%.

Take `CC1=NN(C(=O)c2ccccc2)C(=O)C1/N=N/c1ccc(S(=O)(=O)Nc2ncccn2)cc1` (stereo not drawn) [Compound 331]: the concentration for half-maximal inhibition (IC50) was 20 µM in [7]; 11 µM in data set [8]; 14 µM in data set [9] (HT-29 cells, NI = not inhibitory, read-out: Cytotoxicity (IC50 μM)). In addition, in data set [10], the Metabolic half life amounted to 1.03 h. Moreover, the Solubility in data set [11] is 28.3 µM (≈ 13.1 µg/mL).

In the case of `CC1=NN(C(=O)c2ccc(Cl)cc2)C(O)C1/N=N/c1ccc(S(=O)(=O)Nc2ncccn2)cc1` (stereo not drawn) [Compound 335], the half-maximal inhibitory concentration (IC50) in data set [7] was found to be 5 µM; in [8], 3 µM. Besides, the Solubility in data set [11] is under 0.1 µM.

Regarding `NS(=O)(=O)c1nnc(NS(=O)(=O)c2cccc3cccnc23)s1` [Compound 345], the half-maximal inhibitory concentration (IC50) in data set [9] (setting [14]) is over 100 µM.

With `CC1=NN(C(=O)c2ccc(Cl)cc2)C(=O)C1/N=N/c1ccc(S(=O)(=O)Nc2nnc(C)s2)cc1` (stereo not drawn) [Compound 389], the IC50 in data set [9] (setting [14]) is over 100 µM.

For the compound `COc1cc(NS(=O)(=O)c2ccc(NS(=O)(=O)c3c(C)noc3C)cc2)nc(OC)n1` [Compound 415], in [9] (setting [14]), the IC50 was found to be 3.1 µM.

On to `O=C(Nc1ccccc1)c1ccccc1NC(=O)c1ccccc1C(=O)O` [Compound 439], for which the “Cell viability (IC50)” value in data set [1] was “N/I”. Also, the IC50 in data set [5] (setting [15]) turned out to be 50 µM.

Take `CCOc1ccccc1C(=O)Nc1ccccc1C(=O)O` [Compound 441]: in [1], the “Cell viability (IC50)” value is given as “N/I”. Besides, the 50% inhibitory concentration (IC50) in [5] (setting [15]) is 25 µM.

`COc1cc(NS(=O)(=O)c2ccc(Nc3ccco3)cc2)nc(OC)n1` [Compound 444]: the “Cell viability (IC50)” value in [1] is reported as “N/I”. Also, the IC50 in data set [5] (setting [15]) amounted to 50 µM.

In the case of `COc1cc(NS(=O)(=O)c2ccc(NC(=O)c3ccco3)cc2)nc(OC)n1` [Compound 445], the “Cell viability (IC50)” value in data set [1] is recorded as “N/I”. Further, the concentration for half-maximal inhibition (IC50) in data set [5] (setting [15]) was 50 µM.

With `COc1cc(NS(=O)(=O)c2ccc(NC(C)=O)cc2)nc(OC)n1` [Compound 450], the “Cell viability (IC50)” value in data set [1] is “N/I”. In data set [5] (setting [15]), the IC50 turned out to be 50 µM.

As to `Cc1nnc(NS(=O)(=O)c2ccc(NS(=O)(=O)c3ccc4ccccc4c3)cc2)s1` [Compound 455], in [1], the cytotoxicity result was “did not exhibit cytotoxicity” and the “Cell viability (IC50)” value is reported as “N/I”.

For `Nc1ccc(S(=O)(=O)Nc2ccc(S(=O)(=O)Nc3nnc(S(N)(=O)=O)s3)cc2)cc1` [Compound 456], in data set [1], the “Cell viability (IC50)” value is recorded as “N/I”. Moreover, in [5] (setting [15]), the concentration for half-maximal inhibition (IC50) is 50 µM.

These data come from patent US9320734B2, “Small molecule inhibitors of the pleckstrin homology domain and methods for using same” (Board of Regents, The University of Texas System, priority 2008, dated 2016).
